Experimental data reported in patent US6713280B1, “Enhancement of peptide cellular uptake” (Thomas Jefferson University, priority 1999, dated 2004).
Residues, ends and D or L forms follow the SMILES beside them. *: point of attachment. Decanoyl = CCCCCCCCCC(=O)*

Key:
[1] = system: HL-60 cell line (parent line); conditions: 50 μM, parent HL-60 line; cited from earlier work
[2] = system: Bcl-2-transfected HL-60 line; conditions: 50 μM (same concentration); cited from earlier work
[3] = system: HL-60 cells transfected with Bcl-2 to overexpress Bcl-2; experiment: DNA fragmentation apoptosis assay; assay type: cell-based, human; conditions: 50 μM, 2 hours, Bcl-2-transfected HL-60 cells, FIG. 6
GST-Bcl-2 protein = GST-Bcl-2 protein (Homo sapiens, UniProt P10415); experiment: Fluorescence polarization competition binding assay of decyl-SEQ ID NO:56 to GST-Bcl-2
Experimental: The binding equation proposed by Weinhold et al., J. Am. Chem. Soc. 114:9270-9275, 1992, was used to derive the dissociation constant KD of an inhibitor from petition inhibition curve, [formula]
The Ec50 for the Bcl-2 binding of decyl-SEQ ID NO:56 was 0.13 μM, indicating strong binding.
The binding of the peptide conjugate decyl-SEQ ID NO:56 to the Bcl-2 protein was assayed by the following competition assay. […] The following micromolar concentrations of decyl-K1285 were then incubated with the mixture for 30 minutes at 37° C. (0.005, 0.01, 0.02, 0.04 0.08 0.16 and 0.32).

Bcl-2 protein = Bcl-2 protein (Homo sapiens, UniProt P10415); experiment: Fluorescence polarization competition binding against Flu-SEQ ID NO:30 (BH3 peptides); conditions: FIG. 3; for inhibition of Bcl-2 binding of Flu-SEQ ID NO:30: competition curve; for relative competition to Flu-SEQ ID NO:30 binding: comparison among BH3 peptides
Chain of Bcl-2 protein (P10415 whole entry): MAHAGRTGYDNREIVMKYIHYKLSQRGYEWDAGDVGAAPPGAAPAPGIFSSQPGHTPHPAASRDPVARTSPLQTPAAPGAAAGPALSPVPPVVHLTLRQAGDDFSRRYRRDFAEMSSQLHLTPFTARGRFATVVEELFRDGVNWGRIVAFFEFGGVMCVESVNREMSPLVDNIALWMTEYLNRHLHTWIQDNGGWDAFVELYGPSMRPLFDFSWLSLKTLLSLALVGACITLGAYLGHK

Chain of GST-Bcl-2 protein (P10415 1-205 limits assumed): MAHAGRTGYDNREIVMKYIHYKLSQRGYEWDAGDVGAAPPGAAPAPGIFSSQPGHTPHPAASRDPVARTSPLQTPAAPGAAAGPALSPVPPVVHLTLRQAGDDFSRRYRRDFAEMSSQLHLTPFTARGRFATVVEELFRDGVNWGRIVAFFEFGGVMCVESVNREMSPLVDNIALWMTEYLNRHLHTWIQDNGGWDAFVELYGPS

For COc1cc([C@@H]2c3cc4c(cc3[C@@H](O[C@@H]3O[C@@H]5CO[C@@H](C)O[C@H]5[C@H](O)[C@H]3O)[C@H]3COC(=O)[C@H]23)OCO4)cc(OC)c1O [etoposide], the “sensitivity of cells to the drug” value [1] is listed as “sensitive” and the “sensitivity of cells to the drug” value [2] is listed as “resistant”.

In the case of CCCCCCCCCC(=O)N[C@@H](CCCCN)C(=O)N[C@@H](CC(N)=O)C(=O)N[C@@H](CC(C)C)C(=O)N[C@@H](Cc1c[nH]c2ccccc12)C(=O)N[C@@H](C)C(=O)N[C@@H](C)C(=O)N[C@@H](CCC(N)=O)C(=O)N[C@@H](CCCNC(=N)N)C(=O)N[C@@H](Cc1ccc(O)cc1)C(=O)NCC(=O)N[C@@H](CCCNC(=N)N)C(=O)N[C@@H](CCC(=O)O)C(=O)N[C@@H](CC(C)C)C(=O)N[C@@H](CCCNC(=N)N)C(=O)N[C@@H](CCCNC(=N)N)C(=O)N[C@@H](CCSC)C(=O)N[C@@H](CO)C(=O)N[C@@H](CC(=O)O)C(=O)N[C@@H](CCC(=O)O)C(=O)N[C@@H](Cc1ccccc1)C(=O)N[C@@H](CCC(=O)O)C(=O)NCC(=O)N[C@@H](CO)C(=O)N[C@@H](Cc1ccccc1)C(=O)N[C@@H](CCCCN)C(=O)NCC(=O)N[C@@H](CC(C)C)C(=O)O [decyl-SEQ ID NO:56] (Decanoyl-KNLWAAQRYGRELRRMSDEFEGSFKGL-OH; C-terminus assumed), the “DNA fragmentation (marker of apoptosis)” value [3] is reported as “DNA fragmentation was observed” and the EC50 (GST-Bcl-2 protein) is reported as 130 nM.

In the case of “GQVGRQMIIGDDINR (GQVGRQAAIIGDDINR) [SEQ ID NO:58, reference compound]”, the “inhibition of Bcl-2 binding of Flu-SEQ ID NO:30” value (“inhibition … of Flu-SEQ ID NO:30” below) (Bcl-2 protein) is reported as “no significant effect”.

With “NLWAAQRYGRELRRMSDEFEGSFKGL [SEQ ID NO:1]” the “relative competition to Flu-SEQ ID NO:30 binding” value (Bcl-2 protein) was “strongest competition” and the “inhibition … of Flu-SEQ ID NO:30” value (Bcl-2 protein) was “clear dose-dependent inhibition”.

In the case of KKLSECLKRIGDELDS [SEQ ID NO:32], the “relative competition to Flu-SEQ ID NO:30 binding” value (Bcl-2 protein) is reported as “weaker activity” and the “inhibition … of Flu-SEQ ID NO:30” value (Bcl-2 protein) is reported as “clear dose-dependent inhibition”.

With “KNLWAAQRYGRELRRMSDEFEGSFKGL [SEQ ID NO:56]” the “DNA fragmentation (marker of apoptosis)” value [3] was “observed in the decyl-SEQ ID NO:56-treated cells only”.

With CCCCCCCCCC(=O)O [decanoic acid, reference compound] the “DNA fragmentation (marker of apoptosis)” value [3] was “observed in the decyl-SEQ ID NO:56-treated cells only”.
